Earlier results in patent publication US20130236544A1, “STABLE PHARMACEUTICAL COMPOSITIONS OF FESOTERODINE” (DR. REDDY'S LABORATORIES LTD., priority 2012, published 2013).
Structures can show the parent of a compound that is named as a salt.

Structure (SMILES): CC(C)C(=O)Oc1ccc(CO)cc1[C@H](CCN(C(C)C)C(C)C)c1ccccc1 [Fesoterodine fumarate, isobutyric acid 2-((R)-3-diisopropylammonium-1-phenylpropyl)-4-(hydroxymethyl) phenyl ester hydrogen fumarate]
- solubility in water: freely soluble in water
